Test results reported in PubChem BioAssay AID1259407 (Chemical Carcinogenesis Research Information System (CCRIS), 2018).
Calls of active or inactive are those of the source. How the calls were made is not given here.

Test system: CCRIS mutagenicity, Ames/micronucleus/aberration tests
Assay: CCRIS mutagenicity studies
Settings: Test System: AMES SALMONELLA TYPHIMURIUM
[1] = Strain/Indicator: TA1537, Metabolic Activation: NONE, Method: STANDARD PLATE
[2] = Strain/Indicator: TA98, Metabolic Activation: NONE, Method: STANDARD PLATE
[3] = Strain/Indicator: TA100, Metabolic Activation: NONE, Method: STANDARD PLATE

`CN(C)CCNC(=O)c1ccc2nc3ccccc3c(N)c2c1` was tested, and the mutagenic call [1] was “inactive; negative”.

With `ClCc1cccc2c1-c1cccc3cccc-2c13` the mutagenic call [2] was “active; positive” and the mutagenic call [3] was “active; positive”.

`O=C(OCc1ccc(Cl)cc1)c1cccc2cccnc12` was tested, and the mutagenic call [2] was “inactive; negative”, the mutagenic call (Strain/Indicator: TA98, Metabolic Activation: RAT, LIVER, S-9, AROCLOR 1254, Method: STANDARD PLATE) was “inactive; negative” and the mutagenic call [3] was “inactive; negative”. For the same molecule, the mutagenic call (Strain/Indicator: TA100, Metabolic Activation: RAT, LIVER, S-9, AROCLOR 1254, Method: STANDARD PLATE) was “inactive; negative”, the mutagenic call (Strain/Indicator: TA1535, Metabolic Activation: NONE, Method: STANDARD PLATE) was “inactive; negative” and the mutagenic call (Strain/Indicator: TA1535, Metabolic Activation: RAT, LIVER, S-9, AROCLOR 1254, Method: STANDARD PLATE) was “inactive; negative”. The mutagenic call [1] was “inactive; negative” and the mutagenic call (Strain/Indicator: TA1537, Metabolic Activation: RAT, LIVER, S-9, AROCLOR 1254, Method: STANDARD PLATE) was “inactive; negative”.

For `COc1cc(-c2ccc(N/N=C3\C=C(S(=O)(=O)O)c4ccccc4C3=O)c(OC)c2)ccc1N/N=C1/C=C(S(=O)(=O)O)c2ccccc2C1=O`, the mutagenic call (Strain/Indicator: TA98, Metabolic Activation: HAMSTER, LIVER, S-9, AROCLOR 1254 (10%), Method: PREINCUBATION) was “inactive; negative”, the mutagenic call (Strain/Indicator: TA98, Metabolic Activation: NONE, Method: PREINCUBATION) was “inactive; negative” and the mutagenic call (Strain/Indicator: TA98, Metabolic Activation: RAT, LIVER, S-9, AROCLOR 1254 (10%), Method: PREINCUBATION) was “inactive; negative”. For the same molecule, the mutagenic call (Strain/Indicator: TA100, Metabolic Activation: HAMSTER, LIVER, S-9, AROCLOR 1254 (10%), Method: PREINCUBATION) was “inactive; negative”, the mutagenic call (Strain/Indicator: TA100, Metabolic Activation: NONE, Method: PREINCUBATION) was “inactive; negative” and the mutagenic call (Strain/Indicator: TA100, Metabolic Activation: RAT, LIVER, S-9, AROCLOR 1254 (10%), Method: PREINCUBATION) was “inactive; negative”. For the same molecule, the mutagenic call (Strain/Indicator: TA1535, Metabolic Activation: HAMSTER, LIVER, S-9, AROCLOR 1254 (10%), Method: PREINCUBATION) was “inactive; negative”, the mutagenic call (Strain/Indicator: TA1535, Metabolic Activation: NONE, Method: PREINCUBATION) was “inactive; negative” and the mutagenic call (Strain/Indicator: TA1535, Metabolic Activation: RAT, LIVER, S-9, AROCLOR 1254 (10%), Method: PREINCUBATION) was “inactive; negative”. The mutagenic call (Strain/Indicator: TA1537, Metabolic Activation: HAMSTER, LIVER, S-9, AROCLOR 1254 (10%), Method: PREINCUBATION) was “inactive; negative”, the mutagenic call (Strain/Indicator: TA1537, Metabolic Activation: NONE, Method: PREINCUBATION) was “inactive; negative” and the mutagenic call (Strain/Indicator: TA1537, Metabolic Activation: RAT, LIVER, S-9, AROCLOR 1254 (10%), Method: PREINCUBATION) was “inactive; negative”. The mutagenic call (Strain/Indicator: TA1538, Metabolic Activation: RAT, LIVER, S-9, AROCLOR 1254, Method: STANDARD PLATE) was “inactive; negative”.

In the case of `CC[C@@]1(O)C[C@H](O[C@H]2C[C@H](N(C)C)[C@H](O)[C@H](C)O2)c2c(cc3c(c2O)C(=O)c2c(O)cccc2C3=O)[C@H]1C(=O)OC`, the mutagenic call (Strain/Indicator: TA102, Metabolic Activation: NONE, Method: STANDARD PLATE) is reported as “active; positive” and the mutagenic call (Strain/Indicator: TA104, Metabolic Activation: NONE, Method: STANDARD PLATE) is reported as “active; positive”.

`O=C1OCC(CBr)=C1Cl` was tested, and the mutagenic call [3] was “active; positive”.

`COC(=O)C1Cc2c([nH]c3ccc([N+](=O)[O-])cc23)C(C)N1N=O` (centres undefined) was tested, and the mutagenic call (Strain/Indicator: TA98(NR), Metabolic Activation: NONE, Method: STANDARD PLATE) was “active; positive” and the mutagenic call (Strain/Indicator: TA98(NR), Metabolic Activation: RAT, LIVER, S-9, AROCLOR 1254, Method: STANDARD PLATE) was “inactive; negative”.
